Laboratory results reported in patent US20210222184A1, “COMPOSITIONS AND METHODS FOR EXPRESSING TRANSGENES USING REGULATORY ELEMENTS FROM RUBISCO ACTIVASE GENES” (DOW AGROSCIENCES LLC, priority 2018, published 2021).

Columns and labels:
[1] = test system: transgenic soybean plants; test: 2,4-D herbicide tolerance of T1 transgenic soybean plants; assay type: in vivo, Glycine max; settings: 2240 g ae/ha 2,4-D foliar
Source text: To assess T1 Soybean Herbicide Tolerance, T1 seed generated from self-pollination of single copy T0 events were planted in an artificial soil mix (MetroMix 360™) contained in 4-inch square pots. The T1 generation is a segregating population of the homozygous, hemizygous and non-transgenic plants. To eliminate the null individuals, the T1 population received a foliar application of 411 g active ingredient (ai)/ha glufosinate ammonium (Liberty® 280) when plants reached the first trifoliate leaf stage. Four days after application (DAA) surviving plants were sampled for molecular analysis to determine transgene zygosity and to confirm transgene copy number.
For each event, 8 homozygous and 8 hemizygous plants were sampled for protein analyses, and the following day (third trifoliate stage), half of the plants received a foliar application of 2240 g acid equivalent (ae)/ha 2,4-D dimethylamine (DMA) salt (Weedar® 64). The remaining plants received no spray application. Some plants were also sprayed with deionized water as a sprayer application control. In addition to the transformed events, the soybean variety, ‘Maverick’, was included in each treatment as a non-transformed control.
Foliar applications were made with a Mandel track sprayer set to deliver a spray solution at 187 L/ha to a spray area of 0.503 m^2 using an 8002E nozzle and a spray height of 18 inches above the plant canopy. Plant response to the 2,4-D application was evaluated at 5 hours after application (HAA) and 1, 7, and 14 DAA. Data were collected by assessment of visual injury and/or growth reduction as compared to untreated controls on a scale of 0% to 100% with 0% corresponding to no injury or growth reduction and 100% corresponding to complete plant death. Plants were maintained at 28° C./25° C. (day/night) under a 14 h photoperiod and sub-irrigated with water or fertilizer as needed.

[2] = test system: tagRFP/AAD12 reporter gene; test: N. benthamiana leaf infiltration transient assay, RFP fluorescence; assay type: in vivo; settings: for RFP Mean / RFP Median: Typhoon scanner fluorescence, leaves collected 6th day after infiltration, co-infiltrated with P19 silencing suppressor strain
Source text: Twenty four day old plants were used for infiltration.

GFP = GFP driven by AtUbi10/AtuOrf23 in both constructs; Typhoon scanner, 6th day after infiltration
Description: N. benthamiana plants were grown in the greenhouse under 16 hour photoperiod, 27° C./24° C. Twenty four day old plants were used for infiltration. The 3-4 top-most leaves were infiltrated using two Agrobacterium strains. The first strain was used in all infiltrations and carried the pDAB112236 construct expressing P19 silencing suppressor (Silhavy et al, (2002), EMBO J, 21, 3070-3080). The second Agrobacterium strain was either the experimental strain carrying pDAB116647 (SEQ ID NO:12) or a strain carrying the control pDAB110167 binary vector (FIG. 6). The pDAB110167 was identical to the pDAB116647 (SEQ ID NO:12) except that it had the reporter tagRFP/AAD12 fusion gene driven by the ScBV (Sugar Cane Bacilliform Virus) promoter fused to the Maize Streak Virus (MSV) 5′ leader engineered to contain maize Alcohol dehydrogenaseI (AdhI) gene intron 6 was paired with the StPinII terminator fragment (abbreviated ScBV/StPinII) to drive expression of the tagRFP/AAD12 reporter gene.
For N. benthamiana leaf infiltrations Agrobacterium strains containing either the pDAB116647 or pDAB110167 were mixed in equal proportions with an Agrobacterium strain that carried a plasmid that contained a gene encoding the P19 silencing suppressor Voinnet et al, (1999), Proc Natl Acad Sci USA, 96, 14147-14152. The mixing ratios were based on Optical Density (OD) readings. The density of all Agrobacterium cultures was adjusted to OD 2.0. After infiltration plants were maintained in a Conviron until leaves were collected on the 6th day after infiltration. Fluorescence data were collected using a Typhoon scanner from 30 leaves per construct with 3-5 one inch disks per leaf.
All samples from N. benthamiana were scanned on 3 channels: chlorophyll (488 nm blue laser, 670 nm BP30, 580 nm split), GFP (488 nm blue laser, 520 nm BP40, 580 nm split), and tagRFP (532 nm green laser, 580 nm BP30). The PhotoMultiplier Tube (PMT) setting used for N. benthamiana was 340/340/400. Background adjustments were made by subtracting calculated means for non-treated and empty vector controls from test treatment values. The values from each leaf were averaged to generate a mean fluorescence value.

## pDAB116632: plasmid with GmRubAct promoter and 5' UTR fused to AAD12 gene, terminated with GmRubAct terminator
[1]; Hemi
  % Injury Mean 1 DAA: 18.13%
  % Injury Mean 5 HAA: 15.0%
  % Injury Mean 7 DAA: 4.38%
  % Injury Mean 14 DAA: 3.75%
[1]; Homo
  % Injury Mean 1 DAA: 12.0%
  % Injury Mean 5 HAA: 8.67%
  % Injury Mean 7 DAA: 2.33%
  % Injury Mean 14 DAA: 1.67%

## pDAB116647: binary vector with tagRFP/AAD12 reporter gene driven by GmRubAct promoter, 5' UTR and terminator
[2]
  RFP Mean: 40982229
  RFP Median: 39409305
[2]; mean and median, p-Value <0.0001
  RFP fluorescence relative to the control (pDAB110167) construct: significantly higher
GFP
  GFP Mean: 161956091
  GFP Median: 156309149

## pDAB110167: control binary vector; tagRFP/AAD12 driven by ScBV promoter, MSV 5' leader with AdhI intron 6, StPinII terminator [reference compound]
[2]
  RFP Mean: 24746396
  RFP Median: 21007653
GFP
  GFP Mean: 166966846
  GFP Median: 148985095
